Measured values reported in patent publication US7101890B2, “Benzazepine derivatives, drugs containing these and use of the same for producing drugs” (priority 1996, dated 2006).
Like-named read-outs stand apart in the source and are kept apart here.

Key:
acetylcholine esterase = acetylcholine esterase (Homo sapiens, UniProt P06276); experiment: Inhibition of acetylcholine esterase, modified method of Ellmann, human serum; format: biochemical; details: ACHE inhibition
Procedure: The values were given as a percentage of the comparison sample and the inhibiting concentration (IC^50) was calculated from the course of the curve.

[1] = human serum from a pool of 10 test subjects, 37° C., pH 7.8, compounds of general formula (I)

Sequence of acetylcholine esterase (P06276 29-602): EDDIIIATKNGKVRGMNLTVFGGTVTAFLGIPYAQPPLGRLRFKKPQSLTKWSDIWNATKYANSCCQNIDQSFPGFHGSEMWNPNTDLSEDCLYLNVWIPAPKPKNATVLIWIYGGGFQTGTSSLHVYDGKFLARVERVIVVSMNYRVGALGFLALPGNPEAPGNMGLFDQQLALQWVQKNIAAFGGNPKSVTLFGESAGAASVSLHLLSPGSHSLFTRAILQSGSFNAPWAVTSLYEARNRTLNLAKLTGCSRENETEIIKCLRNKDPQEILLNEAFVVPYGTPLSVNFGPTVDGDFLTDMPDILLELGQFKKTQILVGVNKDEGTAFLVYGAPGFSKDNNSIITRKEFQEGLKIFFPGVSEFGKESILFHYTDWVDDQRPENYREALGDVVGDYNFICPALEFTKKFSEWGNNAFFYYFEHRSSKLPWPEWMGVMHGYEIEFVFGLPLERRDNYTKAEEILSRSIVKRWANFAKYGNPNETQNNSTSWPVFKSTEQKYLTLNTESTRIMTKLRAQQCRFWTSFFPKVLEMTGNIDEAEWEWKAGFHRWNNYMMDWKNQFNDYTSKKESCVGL

Structure (SMILES) | melting point [°C] | IC50 in μMol (acetylcholine esterase; [1]) | further results
O=[N+]([O-])c1ccc(N2CC3CC2CN3Cc2ccccc2)cc1 (stereo not shown) | 170 to 173 | – | –
O=[N+]([O-])c1ccccc1N1CC2CC1CN2Cc1ccccc1 (stereo not shown) | 107 to 108 | – | –
c1ccc(N2CC3CC2CN3)cc1 (stereo not shown) | 120 to 130 | – | –
Cc1ccc(N2CC3CC2CN3)cc1 (stereo not shown) | 130 to 140 | – | –
Clc1ccc(N2CC3CC2CN3)cc1 (stereo not shown) | 120 to 130 | – | –
Fc1ccc(N2CC3CC2CN3)cc1 (stereo not shown) | 120 to 130 | – | –
COc1cc(Br)c2c3c1OC1C[C@@H](O)C=CC31CCN(C)C2=O (mixture of isomers) | 188 to 189 | – | –
CCCCCCN1CCC23C=CC(O)CC2Oc2c(OC)cc(Br)c(c23)C1 (racemic) [Substance 49] | – | insol. | –
C#CCN1CCC23C=CC(O)CC2Oc2c(OC)cc(Br)c(c23)C1 (racemic) [Substance 50] | – | insol. | –
COc1cc(Br)c2c3c1OC1CC(O)C=CC31CCN(CC#N)C2 (racemic) [Substance 52] | – | insol. | –
COC(=O)CCC(=O)N1CCC23C=CC(O)CC2Oc2c(OC)cc(Br)c(c23)C1 (racemic) [Substance 61] | – | insol. | –
COC(=O)N1CCC23C=CC(O)CC2Oc2c(OC)cc(Br)c(c23)C1 (racemic) [Substance 62] | – | insol. | –
COc1ccc2c3c1OC1CC(=NN(C)C)C=CC31CCN(C)C2 (racemic) [Substance 82] | – | insol. | –
COc1ccc2c3c1OC1CC(=NNC(N)=O)C=CC31CCN(C)C2 (racemic) [Substance 87] | – | insol. | –
COc1ccc2c3c1OC1CC(=NO)C=CC31CCN(C)C2 (single isomer, unassigned) [Substance 77, narwedine Oxime] | – | insol. | –
CCCCNC(=S)OC1C=CC23CCN(C)Cc4ccc(OC)c(c42)OC3C1 (single isomer, unassigned; (+)) [Substance 24, (+)-Galanthamin-n-butylthiocarbamate] | – | – | IC50 (acetylcholine esterase; human serum from a pool of 10 test subjects, 37° C., pH 7.8, compounds of general formula (I), read-out: IC50 in μMol): 85 µM
COc1ccc2c3c1OC1CC(O)C=CC31CC[N+](C)([O-])C2 (single isomer, unassigned; (-)) [Substance 98, (−)-Galanthamine-N-oxide] | – | insol. | –
COc1ccc2c3c1O[C@H]1CC(=NO)C=C[C@@]31CCN(C)C2 [Substance 76, narwedine Oxime] | – | insol. | –
COc1ccc2c(c1O)C13C=C[C@@H](O)CC1N(CC3)C2 (stereo partly shown) [Substance 115, 35-4,4a-dihydro-9-methoxy-10-hydroxy (3H,6H) (5,10b) ethanophenanthridine-3-ol] | – | – | IC50 (acetylcholine esterase; human serum pool, compounds of formula (II), read-out: IC50): > 150 µM
